The supplement of paper PMC10290057
Counter-ions that a name gives are not always drawn.

Test system: HCT116
Test: efficacy (fitted maximal change in viability relative to DMSO control); higher = less cytotoxic (negative = loss of viability)
Details: 48 h
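Further: Luminescence-based viability readout, five doses per compound, normalized against on-plate DMSO and empty-well controls, followed by dose-response curve fitting for every drug.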

Row | SMILES | efficacy [%]
1 | Cc1c[nH]c(/C=C2\C(=O)Nc3ccccc32)c1CCC(=O)O [SU-5402] | -32.1
2 | N[S+](=O)([O-])c1cc(Cl)c(Cl)c([S+](N)(=O)[O-])c1 [Diclofenamide] | -19.2
3 | CC1(C)S[C@H]2[C@H](NC(=O)[C@@H](N)c3ccc(O)cc3)C(=O)N2[C@H]1C(=O)O [Amoxicillin sodium] | 6.82
4 | Clc1ccc2ncc(-c3cccc(NC4CNC4)n3)n2c1 | -10.1
5 | Cc1ccc(NC(=O)Nc2nnc(Sc3ncnc4cc(OCCCN5CCOCC5)ccc34)s2)cc1 [SKLB4771] | -24.1
6 | O=C1Nc2ccc(I)cc2/C1=C/c1cc(Br)c(O)c(Br)c1 [GW-5074] | -38
7 | O=[N+]([O-])c1cncn1CCN1CCOCC1 [Nimorazole] | -10.3
8 | CC1=C(/C=C/C(C)=C/C=C/C(C)=C/C=C/C=C(C)/C=C/C=C(C)/C=C/C2=C(C)CCCC2(C)C)C(C)(C)CCC1 [beta-Carotene] | -21.3
9 | CC[C@H]1OC(=O)[C@H](C)C(=O)[C@H](C)[C@@H](O[C@H]2O[C@H](C)C[C@H](N(C)C)[C@H]2O)[C@](C)(OC)C[C@@H](C)C(=O)[C@H](C)[C@H]2N(CCCCn3cnc(-c4cccnc4)c3)C(=O)O[C@]12C [Telithromycin] | -11.9
10 | C[C@]12CC[C@H]3[C@@H](C\C=C/4C[C@@H](O)CC[C@]34C)[C@@H]1CCC2=O [Dehydroepiandrosterone] | -17
11 | CN(C)CC/C=C1/c2ccccc2COc2ccc(CC(=O)O)cc21 [Olopatadine hydrochloride] | 5.52
12 | C[S+](=O)([O-])OCCCCO[S+](C)(=O)[O-] [Busulfan] | -5.76
13 | CC(C)(C)NC(=O)[C@H]1CC[C@H]2[C@@H]3CC[C@H]4NC(=O)\C=C/[C@]4(C)[C@H]3CC[C@]12C [Finasteride] | -16.1
14 | Cc1c(OCC(F)(F)F)ccnc1C[S+]([O-])c1nc2ccccc2[nH]1 (centres undefined) [Lansoprazole] | -18.3
15 | CC(=O)O[C@@]12CO[C@@H]1C[C@H](O)[C@@]1(C)C(=O)[C@H](O)C3=C(C)[C@@H](OC(=O)[C@H](O)[C@@H](NC(=O)OC(C)(C)C)c4ccccc4)C[C@@](O)([C@@H](OC(=O)c4ccccc4)[C@H]21)C3(C)C [Docetaxel] | -56.4
16 | CCCCCCCN(CC)CCCC(O)c1ccc(N[S+](C)(=O)[O-])cc1 (centres undefined) [Ibutilide fumarate] | -59.1
17 | Cc1nc(C)c(CN2CCN(C(c3ccc(F)cc3)c3ccc(F)cc3)CC2)nc1C [CXC-195] | -77.3
18 | COc1cc2ncn(-c3cc(OCc4ccccc4[S+](C)(=O)[O-])c(C#N)s3)c2cc1OC [IKK-3 Inhibitor IX] | -13.8
19 | Cc1ccc(Nc2cc(N[C@@H]3CCCC[C@@H]3N)nnc2C(N)=O)nc1C [RO-9021] | -74.9
20 | O=C(O)c1cc(O)c2c(c1)C(=O)c1cccc(O)c1C2=O [Rhein] | -14.9
21 | Clc1cccc(C(c2ccc3nc[nH]c3c2)n2ccnc2)c1 (centres undefined) [Liarozole] | -23
22 | C\C1=N\N(C(=O)C1)C2=CC=CC=C2 [Edaravone] | -11.9
23 | O=C(Nc1cc(Cl)cc2c1[nH]c1cnccc12)c1cccnc1 [PS-1145] | 18.5
24 | CN1CCN(CCCNc2ncc(Cl)c(-c3cc4c(C(=O)NC5CC5)cccc4s3)n2)CC1 | -28.8
25 | N[S+](=O)([O-])NCCNc1nonc1/C(=N/O)Nc1ccc(F)c(Br)c1 [Epacadostat] | -25.2

Row | SMILES | efficacy [%]
26 | COC1=CC2=C(C=C1OCCCN3CCCC3)\N=C(N)/C24CCC4 [A-366] | 8
27 | CN(C)CCNC(=O)COc1c2cccc1Cc1cccc(c1OCC(=O)NCCN(C)C)Cc1cccc(c1OCC(=O)NCCN(C)C)Cc1cccc(c1OCC(=O)NCCN(C)C)C2 [OTX-008] | -46.7
28 | Cc1cccc(N(C)C(=S)Oc2ccc3ccccc3c2)c1 [Tolnaftate] | -28.8
29 | O=c1oc2cc(O)ccc2s1 [Tioxolone] | -6.66
30 | C[S+](=O)([O-])c1ccc(-c2cnc(N)c(C(=O)Nc3ccccc3)n2)cc1 [VE-821] | -26.1
31 | CCC(C)CNCC(=O)N1CCc2sccc2C1c1cccc(C)n1 (centres undefined) [RUSKI-201] | -17
32 | CCOC(=O)c1c(C)n(C)c2ccc(O)cc12 [Mecarbinate] | -21.6
33 | CC(=O)N1CCC[C@H]1C(=O)N[C@@H](Cc1c[nH]cn1)C(=O)N[C@@H](CO)C(=O)N[C@@H](CS)C(=O)N[C@@H](CC(N)=O)C(N)=O [ATN-161] | -6.15
34 | CCCCC(F)(F)[C@@]1(O)CC[C@H]2[C@@H](CC(=O)[C@@H]2CCCCCCC(=O)O)O1 [Lubiprostone] | -6.29
35 | CC(C)(F)C[C@H](N[C@@H](c1ccc(-c2ccc([S+](C)(=O)[O-])cc2)cc1)C(F)(F)F)C(=O)NC1(C#N)CC1 [Odanacatib] | -28.3
36 | C[C@]12CCC\3=C\4CCC(=O)\C=C4CC[C@H]3[C@@H]1CC[C@@]2(O)CC#N [Dienogest] | -15.9
37 | CO[C@@H]1[C@@H](OC(N)=O)[C@@H](O)[C@H](OC2=CC=C3\C(=C(NC(=O)C4=CC=C([O-])C(=C4)CC=C(C)C)/C(=O)OC3=C2C)O)OC1(C)C [Novobiocin sodium] | 3.79
38 | NC(=O)c1nc(F)cnc1O [Favipiravir] | -17.6
39 | CN(C)[C@H]\1[C@@H]2[C@@H](O)[C@@H]\3C(=C)C4=C(C(=CC=C4)O)C(=O)C3=C(\O)[C@@]2(O)C(=O)\C(=C1O)C(N)=O [Methacycline hydrochloride] | -9.07
40 | C[S+](=O)([O-])Nc1ccc([N+](=O)[O-])cc1Oc1ccccc1 [Nimesulide] | -15.6
41 | COc1ccc(-c2ccc3cc(C(=O)O)ccc3c2)cc1C12CC3CC(CC(C3)C1)C2 [Adapalene] | 9.71
42 | O=C(Nc1cc(Oc2cc(F)c(NC(=O)C3(C(=O)Nc4ccc(F)cc4)CC3)cc2F)ccn1)C1CC1 [Altiratinib] | -68.8
43 | N\C1=N\C2=C(N=C[N]2COC(CO)CO)C(=O)N1 [Ganciclovir] | -18.1
44 | C#C[C@]1(O)CC[C@H]2[C@@H]3CCc4cc(OC)ccc4[C@H]3CC[C@@]21C [Mestranol] | -33.5
45 | O=C(NC[C@H](O)CN1CCc2ccccc2C1)c1cc(NC2COC2)ncn1 | 13
46 | C/C(O)=C(\C#N)C(=O)Nc1cc(Br)ccc1Br [LFM-A13] | -11.7
47 | O=C(O)CCCCC(CCSCc1ccccc1)SCc1ccccc1 (centres undefined) [CPI-613] | -19.4
48 | OCc1ccc(-c2ccc(-c3ccc(CO)s3)o2)s1 [RITA] | -46
49 | CN(Cc1ccccc1)C(=O)c1ccc([S+](=O)([O-])Nc2ccccc2)cc1 [Compound 2] | -20.4
50 | COC1=CC=C(C=C1)C/2=C/OC3=C(C(=CC(=C3)O)O)C2=O [Biochanin A] | -34.7

Row | SMILES | efficacy [%]
51 | N[S+]([O-])(=O)OC1=CC=C2\C3=C(CCCCC3)/C(=O)OC2=C1 [Irosustat (STX-64)] | -30.6
52 | COc1cc(C)c(/C=C/C(C)=C/C=C/C(C)=C/C(=O)O)c(C)c1C [Acitretin] | -17.3
53 | Cc1noc(C)c1-c1ccc(-c2cc(C(N)=O)c(NC(N)=O)s2)c(O[C@H]2CCNC2)c1 [AZD-3264] | -40.3
54 | CC#CC(=O)N1CC[C@@H](n2c(=O)n(-c3ccc(Oc4ccccc4)cc3)c3c(N)ncnc32)C1 [ONO-4059 (GS-4059)] | -53.5
55 | COc1ccc(C2CNC(=O)C2)cc1OC1CCCC1 (centres undefined) [Rolipram] | -7.4
56 | CCCc1nc(C(C)(C)O)c(C(=O)O)n1Cc1ccc(-c2ccccc2-c2nn[nH]n2)cc1 [Olmesartan] | -6.46
57 | CN(C)c1nc(N(C)C)nc(N(C)C)n1 [Altretamine] | -12.2
58 | COC1=CC=CC2=C1C(=C(/C(=O)N(C)C3=CC=C(C=C3)C(F)(F)F)C(=O)N2C)/O [Tasquinimod] | -6.06
59 | CC(C)C[C@H](CC(=O)O)C(=O)N[C@@H](Cc1c[nH]c2ccccc12)C(=O)N[C@@H](C)c1ccccc1 [GM-1489] | 10.9
60 | C[C@]12CC[C@H]3[C@@H](CCC/4=C/C(=O)CC[C@]34C)[C@@H]1CC[C@@H]2OC(=O)CCC5CCCC5 [Testosterone cypionate] | -12
61 | Cc1cccc(-c2n[nH]cc2-c2ccc3ncccc3n2)n1 [SJN-2511] | 6.89
62 | COc1ccc([S+](=O)([O-])Nc2cc(-c3csc(C#N)c3)ccc2C)cc1 [EL-102] | -62
63 | C[C@H]1COC/2=C1/C(=O)C(=O)C3=C4CCCC(C)(C)C4=CC=C23 [Cryptotanshinone] | -30
64 | COc1cc([C@H]2Oc3cc([C@H]4Oc5cc(O)cc(O)c5C(=O)[C@@H]4O)ccc3O[C@@H]2CO)ccc1O [Silybin] | -13.3
65 | Clc1ccc(C(c2ccccc2Cl)C(Cl)Cl)cc1 (centres undefined) [Mitotane] | -92.3
66 | Cc1onc(-c2ccccc2)c1-c1ccc([S+](N)(=O)[O-])cc1 [Valdecoxib] | -36.8
67 | CCN(CCCOc1ccc2c(Nc3cc(CC(=O)Nc4cccc(F)c4)[nH]n3)ncnc2c1)CCOP(=O)(O)O [AZD1152] | -24.9
68 | CCc1cccc2c3c([nH]c12)[C@@](CC)(CC(=O)O)OCC3 [R-Etodolac] | -22.7
69 | CN1CC(=O)\N=C1\NC(=O)NC2=CC(=CC=C2)Cl [Fenobam] | 5.7
70 | O=C(C[C@@H]1C/C=C\CCC(=O)O[C@H](c2ccccc2)CNC1=O)NCc1ccc(Cl)cc1 [Robotnikinin] | -22.6
71 | CCCNCC(O)COc1ccccc1C(=O)CCc1ccccc1 (centres undefined) [Propafenone hydrochloride] | -43.8
72 | CO[C@H]1/C=C/O[C@@]2(C)Oc3c(C)c(O)c4c(O)c(c(/C=N\N5CCN(C6CCCC6)CC5)c(O)c4c3C2=O)NC(=O)/C(C)=C\C=C\[C@H](C)[C@H](O)[C@@H](C)[C@@H](O)[C@@H](C)[C@H](OC(C)=O)[C@@H]1C [Rifapentine] | -59.1
73 | CN1\C=C(/N=C(NC2=CC=C(C=C2)C(=O)N3CCOCC3)\C1=O)C4=C(C)C(=CC=C4)NC(=O)C5=CC=C(C=C5)C(C)(C)C [CGI-1746] | -29.2
74 | CC(C)c1cnn2c(NCc3ccccc3)cc(NCCCCCCN)nc12 [BS-181] | -106
